Experimental data as given in ChEMBL document CHEMBL1127967, “Argatroban analogs: Synthesis, thrombin inhibitory activity and cell permeability of aminoheterocyclic guanidine surrogates” (Bioorg Med Chem Lett, 1994).
Blank lines part the entries; values can stand above or below the compound they belong to.

Key:
[1] = pKa value of the compound; type: physicochemical
Caco-2 = test: compound was evaluated for their ability to cross a Caco-2-monolayer; type: functional, cell-based; conditions: Homo sapiens
Prothrombin = Prothrombin (Homo sapiens, UniProt P00734); test: Inhibitory activity against thrombin was measured by its ability to cleave the synthetic substrate S-2238(D-Phe-Pip-Arg-pNA); conditions: read-out: I50

pKa [1]: 5.2
IC50 (Prothrombin): 24 µM
SMILES: CC1CCN(C(=O)[C@H](CCCNc2cccnn2)NS(=O)(=O)c2ccc3ccccc3c2)CC1
Permeability coefficient (Caco-2): 12.3 ×10⁻⁶ cm/s

pKa [1]: 6.9
IC50 (Prothrombin): 5.5 µM
SMILES: CC1CCN(C(=O)[C@H](CCCNc2ccccn2)NS(=O)(=O)c2ccc3ccccc3c2)CC1

pKa [1]: 3.1
IC50 (Prothrombin): > 40 µM
SMILES: CC1CCN(C(=O)[C@H](CCCNc2cnccn2)NS(=O)(=O)c2ccc3ccccc3c2)CC1
Permeability coefficient (Caco-2): 14.2 ×10⁻⁶ cm/s

Second part, the compound before the results:

SMILES: CC1CNc2c(cccc2S(=O)(=O)NC(CCCNC(=N)N)C(=O)N2CC[C@@H](C)C[C@@H]2C(=O)O)C1 (single isomer, unassigned) [ARGATROBAN]
pKa [1]: 14
Permeability coefficient (Caco-2): 0.3 ×10⁻⁶ cm/s

SMILES: CC1CCN(C(=O)[C@H](CCCN=C(N)N)NS(=O)(=O)c2ccc3ccccc3c2)CC1
pKa [1]: 14
IC50 (Prothrombin): 2.5 µM
Permeability coefficient (Caco-2): 0.4 ×10⁻⁶ cm/s

SMILES: COc1ccc2ccc(S(=O)(=O)N[C@@H](CCCNc3cccnn3)C(=O)N3CCC(C)CC3)cc2c1
pKa [1]: 5.2
IC50 (Prothrombin): 2.3 µM
Permeability coefficient (Caco-2): 12.1 ×10⁻⁶ cm/s

SMILES: CC1CCN(C(=O)[C@H](CCCNc2ncccn2)NS(=O)(=O)c2ccc3ccccc3c2)CC1
pKa [1]: 3.5
IC50 (Prothrombin): > 115 µM
Permeability coefficient (Caco-2): 13.8 ×10⁻⁶ cm/s

SMILES: COc1ccc2ccc(S(=O)(=O)N[C@@H](CCCNc3ccccn3)C(=O)N3CCC(C)CC3)cc2c1
pKa [1]: 6.9
IC50 (Prothrombin): 0.47 µM
Permeability coefficient (Caco-2): 3 ×10⁻⁶ cm/s
